From patent US9822138B2, “Antiviral beta-amino acid ester phosphodiamide compounds” (Merck Sharp & Dohme Corp., priority 2015, dated 2017) come the findings set out here.

The test system of data set [1] is HIV-1 (H9/IIIB strain). Description: microbe, parasite or virus in culture. The format is cell-based. The note with it: MT4-GFP cells infected with HIV-1 H9/IIIB, inhibition of reproductive ratio R0. As to the method: Assessing Antiviral Potency in a Multiple Round HIV-1 Infection Assay (Viking Assay)
The antiviral activity of the tenofovir prodrugs of the Examples herein was assessed in an assay that measures the rate of replication of HIV in cell culture, termed the Viking assay (Viral KINetics in Green cells) and performed as follows. HIV-1 replication was monitored using MT4-gag-GFP clone D3 (hereafter designated MT4-GFP), which are MT-4 cells modified to harbor a GFP reporter gene, the expression of which is dependent on the HIV-1 expressed proteins tat and rev. Productive infection of an MT4-GFP cell with HIV-1 results in GFP expression approximately 24 h post-infection. MT4-GFP cells were maintained at 37° C./5% CO2/90% relative humidity in RPMI 1640 supplemented with 10% fetal bovine serum, 100 U/ml penicillin/streptomycin, and 400 μg/ml G418 to maintain the reporter gene. For infections, MT4-GFP cells were placed in the same medium lacking G418 and infected overnight with HIV-1 (H9/IIIB strain) virus at an approximate multiplicity of infection of 0.01 in the same incubation conditions. Cells were then washed and re-suspended in either RPMI 1640 supplemented with 10% or 50% normal human serum (NHS) at 1.6×10^5 cells/mL (10% NHS or 50% NHS, respectively). Compound plates were prepared by dispensing compounds dissolved in DMSO into wells of 384 well poly-D-lysine-coated plates (0.2 μl/well) using an ECHO acoustic dispenser. Each compound was tested in a 10-point serial 3-fold dilution (typical final concentrations: 8.4 μM-0.42 nM). Controls included no inhibitor (DMSO only) and a combination of three antiviral agents (efavirenz, indinavir, an in-house integrase strand transfer inhibitor at final concentrations of 4 μM each). Cells were added ([…]) to compound plates and the infected cells were maintained at 37° C./5% CO2/90% relative humidity.
Infected cells were quantified at two time points, ˜48 h and ˜72 h post-infection, by counting the number of green cells in each well using an Acumen eX3 scanner. […] Inhibition of R0 is calculated for each well, and IC50s determined by non-linear 4-parameter curve fitting.

Data set [2] can be described thus: Prodrug stability assay in bio-relevant media (FaSSIF with pancreatin; GI tract stability). The data set is classed as in vitro ADME. The note with it: parent prodrug area at 5 h divided by area at 0 h; 37° C.; 0.5 mg/mL pancreatin in FaSSIF. As to the method:
Prodrug Stability Assay in Bio-Relevant Media
The following assay was employed to evaluate the stability of the prodrugs in simulated gastrointestinal tract conditions. Preparation of fasted state simulated intestinal fluid (FaSSIF) using Phares SIF Powder was carried out according to protocols from Phare Drug Delivery AG (Baselland, Switzerland). For sample preparation, 10 μL stock solutions (10 mM) of prodrug substance in DMSO was added to 990 μL of 0.5 mg/mL Pancreatin solution (Fisher CAS#8049-47-6) in FaSSIF. Two samples were prepared for each compound at initial. If the sample was clear solution at the beginning, ran one sample directly as initial by HPLC; if the sample was not clear at starting, diluted the sample by 100% ACN. Put the other sample under 37° C. and observed the sample at 5 h time-point. At 5 h time point, if the sample was clear solution then performed HPLC analysis directly; if it was not clear solution, diluted the sample by 100% ACN and assayed by HPLC. All the samples were vortexed for 3 min and observed before injection. For the diluted samples, the area will be multiplied by a factor when data analysis. The analysis was carried out with an Agilent 1100 series HPLC with autosampler. The column was usually a Poroshell 120 EC-C18, 4.6×50 mm, 2.7 μm. The flow rate was 1.8 mL/min, and the injection volume was 5 or 10 μL. UV detection was in the range 210-400 nm. The mobile phase consisted of solvent A (water plus 10 mM tetrabutylammonium bromide) and solvent B (acetonitrile) with a gradient of 90% solvent A at 0 min changing to 95% solvent B over 6 min, maintained for 1.5 min, then reverting to 90% solvent A over 1.6 min. The area of the parent in prodrug at 5 h time point was divided by the area of the parent in prodrug at 0 h time point, to generate the % claimed parent ratio, which are summarized in Table 5 for GI Tract stability.

[3] abbreviates: Human immunodeficiency virus 1, IIIB, 10% normal human serum, read-out: Viking, IC50 (10% NHS).
Where [4] appears, read: Human immunodeficiency virus 1, IIIB, 50% normal human serum, read-out: Viking, IC50 (50% NHS).
Where [5] appears, read: Human immunodeficiency virus 1, 10% normal human serum, read-out: Viking, IC50 (10% NHS).
[6] abbreviates: Human immunodeficiency virus 1, 50% normal human serum, read-out: Viking, IC50 (50% NHS).
Where [7] appears, read: 10% normal human serum, read-out: Viking, IC50 (10% NHS).
Where [8] appears, read: 50% normal human serum, read-out: Viking, IC50 (50% NHS).

Like-named read-outs stand apart in the source and are kept apart here.

In general, IC50 refers to the midpoint of a concentration-inhibition curve. Regarding `CCCCCOC(=O)[C@H](C)NP(=O)(CO[C@H](C)Cn1cnc2c(N)ncnc21)NC[C@H](C)C(=O)OC(C)C` (single isomer, unassigned) [Example 16A], the results for the IC50 in data set [1] (setting [3]) and in data set [1] (setting [4]) were 6.1 nM and 18.6 nM, respectively. The “GI Tract stability” value in data set [2] is given as 12.7%.
`CCCCCOC(=O)C(C)(C)N[P@](=O)(CO[C@H](C)Cn1cnc2c(N)ncnc21)N[C@@H](CC(=O)OC(C)C)C(C)C` (single isomer, unassigned) [Example 24A]: the concentration for half-maximal inhibition (IC50) was determined as 0.8 nM in data set [1] (setting [5]) and 4.4 nM in data set [1] (setting [6]). Also, in data set [2], the “GI Tract stability” value is on record as 76%.
As to `CC(C)OC(=O)[C@@H](C)CNP(=O)(CO[C@H](C)Cn1cnc2c(N)ncnc21)N[C@@H](C)C(=O)OC1CCCCC1` (single isomer, unassigned) [Example 13A], the half-maximal inhibitory concentration (IC50) was 8.7 nM in data set [1] (setting [7]) and 56.4 nM in data set [1] (setting [8]). For the same compound, the “GI Tract stability” value in data set [2] amounted to 38.7%.
Turning to `CC(C)OC(=O)C[C@H](N[P@@](=O)(CO[C@H](C)Cn1cnc2c(N)ncnc21)NC(C)(C)C(=O)OC(C)C)C(C)C` (single isomer, unassigned) [Example 25A], the concentration for half-maximal inhibition (IC50) was 4.7 nM in data set [1] (setting [5]) and 12 nM in data set [1] (setting [6]). The “GI Tract stability” value in data set [2] is listed as 99.0%.
As for `CC(C)OC(=O)C[C@@H](C)NP(=O)(CO[C@H](C)Cn1cnc2c(N)ncnc21)N[C@@H](C)C(=O)OC(C)C` (single isomer, unassigned) [Example 9A], the figures for the IC50 in data set [1] (setting [7]) and in data set [1] (setting [8]) were 25.3 nM and 66.7 nM, respectively. Also, the “GI Tract stability” value in data set [2] is listed as 99.6%.
In the case of `CC(C)OC(=O)C[C@@H](C)NP(=O)(CO[C@H](C)Cn1cnc2c(N)ncnc21)N[C@H](C)C(=O)OC1CCC1` (single isomer, unassigned) [Example 18A], the half-maximal inhibitory concentration (IC50) stood at 65 nM in data set [1] (setting [5]) and 134 nM in data set [1] (setting [6]). For the same compound, in data set [2], the “GI Tract stability” value amounted to 99.2%.
Take `CC(C)OC(=O)CCNP(=O)(CO[C@H](C)Cn1cnc2c(N)ncnc21)N[C@H](C)C(=O)OC1CCC1` (single isomer, unassigned) [Example 23B]: the half-maximal inhibitory concentration (IC50) in data set [1] (setting [7]) came out at 121 nM; in data set [1] (setting [8]), 488 nM. Besides, the “GI Tract stability” value in data set [2] is listed as 101%.
Turning to `CCCCCCCOC(=O)[C@H](C)NP(=O)(CO[C@H](C)Cn1cnc2c(N)ncnc21)NC[C@H](C)C(=O)OC(C)C` (single isomer, unassigned) [Example 17A], the concentration for half-maximal inhibition (IC50) is 6.5 nM in data set [1] (setting [7]) and 43 nM in data set [1] (setting [8]). The “GI Tract stability” value in data set [2] was 30.5%.
Regarding `CC(C)OC(=O)[C@H](C)CNP(=O)(CO[C@H](C)Cn1cnc2c(N)ncnc21)N[C@@H](C)C(=O)OC(C)C` (single isomer, unassigned) [Example 10A], the half-maximal inhibitory concentration (IC50) came out at 10.6 nM in data set [1] (setting [7]) and 97.2 nM in data set [1] (setting [8]). Further, the “GI Tract stability” value in data set [2] is recorded as 54.8%.
Consider `CC(C)COC(=O)[C@H](C)NP(=O)(CO[C@H](C)Cn1cnc2c(N)ncnc21)NC[C@H](C)C(=O)OC(C)C` (single isomer, unassigned) [Example 14A], for which the IC50 in data set [1] (setting [3]) turned out to be 16.6 nM; in data set [1] (setting [4]), 70.2 nM. Besides, the “GI Tract stability” value in data set [2] is on record as 38.3%.
Take `CCCCCCOC(=O)C(C)(C)NP(=O)(CO[C@H](C)Cn1cnc2c(N)ncnc21)N[C@@H](CC(=O)OC(C)C)C(C)C` (single isomer, unassigned) [Example 28B]: the IC50 turned out to be 2.1 nM in data set [1] (setting [7]) and 5.7 nM in data set [1] (setting [8]). In data set [2], the “GI Tract stability” value came to 83%.
Consider `CC(C)OC(=O)[C@@H](C)CNP(=O)(CO[C@H](C)Cn1cnc2c(N)ncnc21)N[C@H](C)C(=O)OC1CCC1` (single isomer, unassigned) [Example 20B], for which the IC50 in data set [1] (setting [7]) amounted to 112 nM; in data set [1] (setting [8]), 432 nM. The “GI Tract stability” value in data set [2] stood at 99.3%.
For `CC(C)OC(=O)C[C@H](C)NP(=O)(CO[C@H](C)Cn1cnc2c(N)ncnc21)N[C@H](C)C(=O)OC1CCC1` (single isomer, unassigned) [Example 19A] the same measures were 51.2 nM, 195 nM and 100%.
